This experiment concerns P. fluorescens strain that is susceptible to kanamycin. The experiment in a line: Growth inhibition of P. fluorescens in 8% D2O, read from deuterated vs undeuterated membrane lipid ions by MALDI mass spectrometry. Type of experiment: cell-based, Pseudomonas fluorescens. Conditions: range of antibiotic concentrations, FIG. 2. The procedure: In FIG. 1 is shown eight MALDI mass spectra from about 680 to 730 m/z in negative ionization mode of membrane lipids extracted from a P. fluorescens strain that is susceptible to kanamycin. The aforementioned P. fluorescens strain was grown in seven environments containing Mueller-Hinton media and water containing 8% D2O, with each of the seven environments also having a concentration of kanamycin from 0 μg/mL to 200 μg/mL.
Extract samples using the method of embodiment 1b, as follows: skip optional step 2 of embodiment 1b; perform step 3 of embodiment 1b by drying the plate at 80° C. for about 5 min; perform step 4 of embodiment 1b by applying 1 μL of a solution of chloroform-methanol-water at a ratio by volume of 12:6:1, to which 10 mg/mL of beta-carboline has been added.
3. […]
In FIG. 1 can be seen multiple spectra for samples of a P. fluorescens strain that is susceptible to kanamycin, grown under different conditions, then extracted with a method of embodiment 1d and analyzed with a method of embodiment 2 using negative ionization mode. […]
In FIG. 2 can be seen a graph of the ratio of heavy/light LA ions from the spectra in FIG. 1, where light LA is measured as the intensity of the ion peak at 688.5 m/z and heavy LA is measured as the intensity of the ion peak at 692.5 m/z.

Molecules are shown by their SMILES.

Turning to `CC1(C)S[C@@H]2[C@H](NC(=O)C(C(=O)O)c3ccccc3)C(=O)N2[C@H]1C(=O)O` (stereo partly shown) [carbenicillin], the “relationship between heavy/light ratio and antibiotic concentration” value was “lowest at the highest antibiotic concentrations”.

The values are drawn from patent US20220364139A1, “METHODS FOR DETERMINING GROWTH AND RESPONSE” (PATAIGIN, LLC, priority 2019, published 2022).
